Measurements: patent US6841569B2, “Carbamates of 2-heterocyclic-1,2-ethanediols” (SK Corporation, priority 2001, dated 2005)

Experiments:
[1] = system: mice (ICR strain); assay: Maximal ElectroShock (MES) test; assay type: in vivo; settings: dosed i.p., Hour 1, elimination of hindlimb tonic extension, 50 mA-60 Hz for 0.2 second
Method: The therapeutic use of the compounds of formula I as anticonvulsants has been established by the “Maximal ElectroShock (MES)” test, which is a well-established pharmacological screening method for anticonvulsants against partial seizures, and the results are presented in Table I. The procedure employed in the MES test for anticonvulsants is as follows. The dosing solutions of the compounds to be tested were prepared in saline. The subjects, namely, mice (ICR strain), were dosed i.p. After the designated number of hours, maximal electroshock was induced in mice via corneal electrodes using IITC Life Science model 11A Shocker at 50 mA-60 Hz for 0.2 second. […] Median efficacy dose (ED50) levels were determined using three different dose levels with at least 6 mice in each group.

melting point [°C] | SMILES | MES ED50 [1] [mg/kg]
– | CNC(=O)OCC(OC(=O)NC)c1ccc(Cl)s1 (stereo not drawn) [Example 7] | 37.4
– | NC(=O)OCC(OC(N)=O)c1ccc(C(F)(F)F)s1 (stereo not drawn) [Example 14, (2-(5-trifluoromethyl-2-thienyl)-2-carbomoyloxyethyl)oxocarboxamide] | 12.6
71 to 73 | O=NC(=O)CC(O)c1cccs1 (stereo not drawn) [Example 21, (2-(2-thienyl)-2-hydroxyethyl)oxocarboxamide] | –
